Patent US20240115547A1, “PSYCHOTROPIC AGENTS AND USES THEREOF” (LB PHARMACEUTICALS INC., priority 2021, published 2024)

Tested on: Dopamine (e.g., D2/D3)
Assay: Dopamine RO % by raclopride PET after LB-102, various dosage regimens (Example 3)
Format: in vivo, human
Conditions: for Dopamine RO % (Caudate + Putamen): group mean
Procedure: Healthy subjects were dosed orally with LB102 of 50 mg QD (n=4), 75 mg QD (n=4), 100 mg QD (n=4), 50 mg SS (n=2), or 100 mg SS (n=2). Subjects were, on average, 33 years old. Subjects dosed QD were given a single dose on day 1 after which PET scans were obtained; and subjects dosed SS, i.e., steady state, were dosed once a day for 4 days and PET scans were obtained after dosing on Day 4.
Dynamic […] raclopride PET scans were obtained 0 h, 2.5 h, 7.5 h, and 23.5 h after LB-102 administration for the 50 mg and 100 mg QD treatment groups and after LB-102 administration of Day 4 for the 50 mg SS and 100 mg SS treatment groups; and 0 h, 3.5 h, 23.5 h, and 47.5 h after LB-102 administration for the 75 mg QD treatment group. Dopamine % RO were calculated using the STRM method (https://pubmed.ncbi.nlm.nih.gov/9345505/, which is incorporated herein by reference) and the combined RO % (average of caudate and putamen RO %) are shown as squares FIGS. 5A (50 mg QD), 5B (75 mg QD), 5C (100 mg QD); and FIGS. 6A (50 mg SS Day 4) and 6B (100 mg SS Day 4); and summarized in Table 3-A below.
Dynamic ^11C raclopride PET scan results for calculation of dopamine RO % were measured in caudate, putamen, thalamus, and temporal lobe of each subject tested, and are summarized in Tables 3-B to 3-F below.

[1] = 50 mg QD, Subject 1, 2.5 h after LB-102 admin.
[2] = 50 mg QD, Subject 1, 7.5 h after LB-102 admin.
[3] = 50 mg QD, Subject 1, 23.5 h after LB-102 admin.
[4] = 50 mg QD, Subject 2, 2.5 h after LB-102 admin.
[5] = 50 mg QD, Subject 2, 7.5 h after LB-102 admin.
[6] = 50 mg QD, Subject 2, 23.5 h after LB-102 admin.
[7] = 50 mg QD, Subject 3, 7.5 h after LB-102 admin.
[8] = 50 mg QD, Subject 3, 23.5 h after LB-102 admin.
[9] = 50 mg QD, Subject 4, 2.5 h after LB-102 admin.
[10] = 50 mg QD, Subject 4, 7.5 h after LB-102 admin.
[11] = 50 mg QD, Subject 4, 23.5 h after LB-102 admin.
[12] = 50 mg SS (Day 4), Subject 1, ~3 h after LB-102 admin.
[13] = 50 mg SS (Day 4), Subject 1, ~8 h after LB-102 admin.
[14] = 50 mg SS (Day 4), Subject 1, ~24 h after LB-102 admin.
[15] = 50 mg SS (Day 4), Subject 2, ~3 h after LB-102 admin.
[16] = 50 mg SS (Day 4), Subject 2, ~8 h after LB-102 admin.
[17] = 50 mg SS (Day 4), Subject 2, ~24 h after LB-102 admin.
[18] = 75 mg QD, Subject 1, 3.5 h after LB-102 admin.
[19] = 75 mg QD, Subject 1, 23.5 h after LB-102 admin.
[20] = 75 mg QD, Subject 1, 47.5 h after LB-102 admin.
[21] = 75 mg QD, Subject 2, 3.5 h after LB-102 admin.
[22] = 75 mg QD, Subject 2, 23.5 h after LB-102 admin.
[23] = 75 mg QD, Subject 2, 47.5 h after LB-102 admin.

## CCN1CCCC1CNC(=O)c1cc(S(=O)(=O)CC)c(NC)cc1OC (stereo not shown) [LB-102]
50 mg QD, 0 h after LB-102 administration
  Dopamine RO % (Caudate + Putamen): 0%
50 mg QD, 3 h after LB-102 administration
  Dopamine RO % (Caudate + Putamen): 24%
50 mg QD, 8 h after LB-102 administration
  Dopamine RO % (Caudate + Putamen): 38%
50 mg QD, 24 h after LB-102 administration
  Dopamine RO % (Caudate + Putamen): 42%
[1]
  Dopamine RO % Caudate: 26%
  Dopamine RO % Putamen: 23%
  Dopamine RO % Temporal lobe: 25%
  Dopamine RO % Thalamus: 40%
[2]
  Dopamine RO % Caudate: 52%
  Dopamine RO % Putamen: 47%
  Dopamine RO % Temporal lobe: 32%
  Dopamine RO % Thalamus: 48%
[3]
  Dopamine RO % Caudate: 58%
  Dopamine RO % Putamen: 48%
  Dopamine RO % Temporal lobe: 30%
  Dopamine RO % Thalamus: 39%
[4]
  Dopamine RO % Caudate: 28%
  Dopamine RO % Putamen: 25%
  Dopamine RO % Temporal lobe: 16%
  Dopamine RO % Thalamus: 42%
[5]
  Dopamine RO % Caudate: 42%
  Dopamine RO % Putamen: 37%
  Dopamine RO % Temporal lobe: 14%
  Dopamine RO % Thalamus: 31%
[6]
  Dopamine RO % Caudate: 45%
  Dopamine RO % Putamen: 36%
  Dopamine RO % Temporal lobe: 11%
  Dopamine RO % Thalamus: 23%
[7]
  Dopamine RO % Caudate: 36%
  Dopamine RO % Putamen: 25%
  Dopamine RO % Temporal lobe: 20%
  Dopamine RO % Thalamus: 42%
[8]
  Dopamine RO % Caudate: 53%
  Dopamine RO % Putamen: 37%
  Dopamine RO % Temporal lobe: 18%
  Dopamine RO % Thalamus: 45%
[9]
  Dopamine RO % Caudate: 23%
  Dopamine RO % Putamen: 19%
  Dopamine RO % Temporal lobe: 23%
  Dopamine RO % Thalamus: 26%
[10]
  Dopamine RO % Caudate: 43%
  Dopamine RO % Putamen: 34%
  Dopamine RO % Temporal lobe: 43%
  Dopamine RO % Thalamus: 28%
[11]
  Dopamine RO % Caudate: 45%
  Dopamine RO % Putamen: 34%
  Dopamine RO % Temporal lobe: 45%
  Dopamine RO % Thalamus: 18%
[12]
  Dopamine RO % Caudate: 75%
  Dopamine RO % Putamen: 67%
  Dopamine RO % Temporal lobe: 18%
  Dopamine RO % Thalamus: 44%
[13]
  Dopamine RO % Caudate: 78%
  Dopamine RO % Putamen: 69%
  Dopamine RO % Temporal lobe: 17%
  Dopamine RO % Thalamus: 40%
[14]
  Dopamine RO % Caudate: 75%
  Dopamine RO % Putamen: 66%
  Dopamine RO % Temporal lobe: 35%
  Dopamine RO % Thalamus: 30%
[15]
  Dopamine RO % Caudate: 74%
  Dopamine RO % Putamen: 66%
  Dopamine RO % Temporal lobe: 26%
  Dopamine RO % Thalamus: 37%
[16]
  Dopamine RO % Caudate: 76%
  Dopamine RO % Putamen: 70%
  Dopamine RO % Temporal lobe: 25%
  Dopamine RO % Thalamus: 43%
[17]
  Dopamine RO % Caudate: 73%
  Dopamine RO % Putamen: 63%
  Dopamine RO % Temporal lobe: 34%
  Dopamine RO % Thalamus: 56%
50 mg SS (once a day for 4 days), 3 h after Day 4 administration
  Dopamine RO % (Caudate + Putamen): 69%
50 mg SS (once a day for 4 days), 24 h after Day 4 administration
  Dopamine RO % (Caudate + Putamen): 68%
50 mg SS and 100 mg SS, at least from Day 4 since the treatment began
  average dopamine (e.g., D2/D3) RO % in caudate, putamen, and thalamus: significantly stabilized
75 mg QD, 0 h after LB-102 administration
  Dopamine RO % (Caudate + Putamen): 0%
75 mg QD, 3 h after LB-102 administration
  Dopamine RO % (Caudate + Putamen): 33%
75 mg QD, 24 h after LB-102 administration
  Dopamine RO % (Caudate + Putamen): 55%
[18]
  Dopamine RO % Caudate: 27%
  Dopamine RO % Putamen: 20%
  Dopamine RO % Temporal lobe: 12%
  Dopamine RO % Thalamus: 31%
[19]
  Dopamine RO % Caudate: 70%
  Dopamine RO % Putamen: 52%
  Dopamine RO % Temporal lobe: 45%
  Dopamine RO % Thalamus: 64%
[20]
  Dopamine RO % Caudate: 53%
  Dopamine RO % Putamen: 38%
  Dopamine RO % Temporal lobe: 4%
  Dopamine RO % Thalamus: 16%
[21]
  Dopamine RO % Caudate: 53%
  Dopamine RO % Putamen: 48%
  Dopamine RO % Temporal lobe: 21%
  Dopamine RO % Thalamus: 44%
[22]
  Dopamine RO % Caudate: 58%
  Dopamine RO % Putamen: 53%
  Dopamine RO % Temporal lobe: 17%
  Dopamine RO % Thalamus: 37%
[23]
  Dopamine RO % Caudate: 45%
  Dopamine RO % Putamen: 39%
  Dopamine RO % Temporal lobe: 16%
  Dopamine RO % Thalamus: 25%
75 mg QD, Subject 3, 3.5 h after LB-102 admin.
  Dopamine RO % Caudate: 57%
